Assays:
κ-opioid receptor [1] = target: T1, κ-opioid receptor (Homo sapiens (Human), UniProt P41145); assay: κ-opioid receptor radioligand dose-displacement binding assay ([3H]-U69,593); conditions: binding affinity, [3H]-U69,593 displacement
Method in brief: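 Competition binding with 0.4 nM [3H]-U69,593 and 15 μg membrane protein from HEK 293 cells expressing recombinant human κ receptor, in 50 mM Tris pH 7.4 with 5% DMSO, 1 h at about 25 °C. Nonspecific binding defined with 10 μM naloxone or U69,593; bound ligand collected by GF/C filtration and scintillation counting.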

κ-opioid receptor [2] = target: T1, κ-opioid receptor; assay: κ-opioid receptor [35S]GTPγS functional assay, HEK-293 or CHO cells; assay type: biochemical; conditions: for Emax: relative to U69,593, HEK-293 or CHO cells
μ-opioid receptor [3] = target: T2, μ-opioid receptor (Homo sapiens (Human), UniProt P35372); assay: μ-opioid receptor radioligand dose-displacement binding assay ([3H]-diprenorphine); conditions: binding affinity, [3H]-diprenorphine displacement; read-out: Ki (nM) Opioid Receptor μ
Protocol: μ-Opioid Receptor Binding Assay Procedures: Radioligand dose-displacement binding assays for μ-opioid receptors used 0.3 nM [^3H]-diprenorphine (Perkin Elmer, Shelton, Conn.), with […] membrane protein/well in a final volume of 500 μl binding buffer (10 mM MgCl2, 1 mM EDTA, 5% DMSO, 50 mM HEPES, pH 7.4). Reactions were carried out in the absence or presence of increasing concentrations of unlabeled naloxone. All reactions were conducted in 96-deep well polypropylene plates for 2 hours at room temperature. Binding reactions were terminated by rapid filtration onto 96-well Unifilter GF/C filter plates (Perkin Elmer, Shelton, Conn.), presoaked in 0.5% polyethylenimine using a 96-well tissue harvester (Perkin Elmer, Shelton, Conn.) followed by performing three filtration washes with 500 μl of ice-cold binding buffer. Filter plates were subsequently dried at 50° C. for 2-3 hours. BetaScint scintillation cocktail (Perkin Elmer, Shelton, Conn.) was added (50 μl/well), and plates were counted using a Packard Top-Count for 1 min/well. The data were analyzed using the one-site competition curve fitting functions in GraphPad PRISM™ v. 3.0 or higher (San Diego, Calif.), or an in-house function for one-site competition curve-fitting.

μ-opioid receptor [4] = target: T2, μ-opioid receptor; assay: μ-opioid receptor [35S]GTPγS functional assay, HEK-293 or CHO cells; assay type: biochemical; conditions: for Emax: relative to DAMGO, HEK-293 or CHO cells
δ-opioid receptor = δ-opioid receptor (Homo sapiens (Human), UniProt P41143); assay: δ-opioid receptor radioligand dose-displacement binding assay ([3H]-Naltrindole); conditions: binding affinity, [3H]-Naltrindole displacement
Protocol: δ-Opioid Receptor Binding Assay Procedures: δ-Opioid Receptor Binding Assay Procedures were conducted as follows. Radioligand dose-displacement assays used 0.2 nM [^3H]-Naltrindole (Perkin Elmer, Shelton, Conn.; 33.0 Ci/mmole) with 5 μg membrane protein (Perkin Elmer, Shelton, Conn.) in a final volume of 500 μl binding buffer (5 mM MgCl2, 5% DMSO, 50 mM Trizma base, pH 7.4). Non-specific binding was determined in the presence of 25 μM unlabeled naloxone. All reactions were performed in 96-deep well polypropylene plates for 1 hour at a temperature of about 25° C. Binding reactions were terminated by rapid filtration onto 96-well Unifilter GF/C filter plates (Perkin Elmer, Shelton, Conn.) presoaked in 0.5% polyethylenimine (Sigma). Harvesting was performed using a 96-well tissue harvester (Perkin Elmer, Shelton, Conn.) followed by five filtration washes with 500 μl ice-cold binding buffer. Filter plates were subsequently dried at 50° C. for 1-2 hours. Fifty μl/well scintillation cocktail (Perkin Elmer, Shelton, Conn.) was added and plates were counted in a Packard Top-Count for 1 min/well.

ORL-1 receptor = ORL-1 receptor (Homo sapiens (Human), UniProt P41146); assay: ORL-1 receptor radioligand binding assay ([3H]-nociceptin); conditions: binding affinity, [3H]-nociceptin displacement
Protocol: ORL-1 Receptor Binding Assay Procedure: Membranes from recombinant HEK-293 cells expressing the human opioid receptor-like receptor (ORL-1) (Perkin Elmer, Shelton, Conn.) were prepared by lysing cells in ice-cold hypotonic buffer (2.5 mM MgCl2, 50 mM HEPES, pH 7.4) (10 ml/10 cm dish) followed by homogenization with a tissue grinder/Teflon pestle. Membranes were collected by centrifugation at 30,000×g for […] at 4° C. and pellets resuspended in hypotonic buffer to a final concentration of 1-3 mg/ml. Protein concentrations were determined using the BioRad protein assay reagent with bovine serum albumen as standard. Aliquots of the ORL-1 receptor membranes were stored at −80° C.
Radioligand binding assays (screening and dose-displacement) used 0.1 nM [^3H]-nociceptin (Perkin Elmer, Shelton, Conn.; 87.7 Ci/mmole) with 12 μg membrane protein in a final volume of 500 μl binding buffer (10 mM MgCl2, 1 mM EDTA, 5% DMSO, 50 mM HEPES, pH 7.4). Non-specific binding was determined in the presence of […] unlabeled nociceptin (American Peptide Company). All reactions were performed in 96-deep well polypropylene plates for 1 h at room temperature. Binding reactions were terminated by rapid filtration onto 96-well Unifilter GF/C filter plates (Perkin Elmer, Shelton, Conn.) presoaked in 0.5% polyethylenimine (Sigma). Harvesting was performed using a 96-well tissue harvester (Perkin Elmer, Shelton, Conn.) followed by three filtration washes with 500 μl ice-cold binding buffer. Filter plates were subsequently dried at 50° C. for 2-3 hours. Fifty μl/well scintillation cocktail (Perkin Elmer, Shelton, Conn.) was added and plates were counted in a Packard Top-Count for 1 min/well. The data from screening and dose-displacement experiments were analyzed using Microsoft Excel and the curve fitting functions in GraphPad PRISM™, v. 3.0 or higher, respectively, or an in-house function for one-site competition curve-fitting.

Sequence of δ-opioid receptor (P41143 whole entry, looked up): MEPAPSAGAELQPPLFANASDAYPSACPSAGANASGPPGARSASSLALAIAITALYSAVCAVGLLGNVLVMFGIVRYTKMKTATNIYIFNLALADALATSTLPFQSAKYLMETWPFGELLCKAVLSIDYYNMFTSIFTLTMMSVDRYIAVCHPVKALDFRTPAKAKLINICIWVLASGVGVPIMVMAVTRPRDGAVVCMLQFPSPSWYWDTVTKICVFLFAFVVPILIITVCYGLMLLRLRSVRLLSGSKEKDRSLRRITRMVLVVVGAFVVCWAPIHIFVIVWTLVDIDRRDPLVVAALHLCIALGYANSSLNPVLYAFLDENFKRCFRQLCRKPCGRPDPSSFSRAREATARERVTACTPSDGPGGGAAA

Compound | Ki (κ-opioid receptor [1]) [nM] | EC50 (κ-opioid receptor [2]) [nM] | Emax (κ-opioid receptor [2]) [%] | Ki (μ-opioid receptor [3]) [nM] | EC50 (μ-opioid receptor [4]) [nM] | Emax (μ-opioid receptor [4]) [%] | Ki (δ-opioid receptor) [nM] | Ki (ORL-1 receptor) [nM]
COC(=O)c1cc2c([nH]c1=O)C[C@]13CCN(CC4CC4)[C@H](Cc4ccc(OC)cc41)[C@@H]3C2 [Compound 3, (6R,6aR,12aS)-methyl 15-(cyclopropylmethyl)-2-methoxy-10-oxo-6,6a,7,10,11,12-hexahydro-5H-6,12a-(epiminoethano)naphtho[2,1-g]quinoline-9-carboxylate] | 3.85 ± 1.09 | 39.1 ± 2.6 | 52.3 ± 1.76 | 449 ± 171 | 34.9 ± 6.84 | 15.7 ± 3.48 | 18.9 ± 7.84 | 
NC(=O)CNC(=O)c1cc2c([nH]c1=O)C[C@]13CCN(CC4CC4)[C@H](Cc4ccc(O)cc41)[C@@H]3C2 [Compound 21, (6R,6aR,12aS)—N-(2-amino-2-oxoethyl)-15-(cyclopropylmethyl)-2-hydroxy-10-oxo-6,6a,7,10,11,12-hexahydro-5H-6,12a-(epiminoethano)naphtho[2,1-g]quinoline-9-carboxamide] |  | 4.19 ± 0.79 | 41 ± 5.29 | 0.59 ± 0.15 | 1.73 ± 0.41 | 23.7 ± 2.19 |  | 2.04 ± 0.49
C[C@H](NC(=O)c1cc2c([nH]c1=O)C[C@]13CCN(CC4CC4)[C@H](Cc4ccc(O)cc41)[C@@H]3C2)C(N)=O [Compound 22, (6R,6aR,12aS)—N—((S)-1-amino-1-oxopropan-2-yl)-15-(cyclopropylmethyl)-2-hydroxy-10-oxo-6,6a,7,10,11,12-hexahydro-5H-6,12a-(epiminoethano)naphtho[2,1-g]quinoline-9-carboxamide] |  | 9.89 ± 2.4 | 36.7 ± 2.73 | 0.56 ± 0.11 | 4.22 ± 1 | 30 ± 3.21 |  | 1.2 ± 0.21

From patent US8980906B2, “Pyridonemorphinan analogs and biological activity on opioid receptors” (Purdue Pharma L.P., priority 2012, dated 2015)
